{"source": "patent US11591353B2", "about": "(Mindset Pharma Inc., priority 2020, dated 2023)", "key": {"[1]": {"biological_target": "human 5-HT2A (h5-HT2A) receptor (Homo sapiens (Human), UniProt P28223)", "assay": "FLIPR assay, human 5-HT2A receptor under agonist mode", "type": "cell-based", "protocol": "• I. Assessment of the activated effect of exemplary compounds of Formula I targeting on human 5-HT2A (h5-HT2A) receptor under agonist mode: Compound Preparation and Assay Controls I.a. Reagent and Materials:\n1. Culture the cells in cell culture medium (DMEM containing 10% FBS 1× penicillin-streptomycin 300 μg/ml G418 and 100 μg/ml hygromycin B) at 37° C., 5% (v/v) CO2.\n2. One day before the assays, detach the cell using TrypLE™ Express and count cells using cell counter.\n3. Seed 20000 cells/well in 30 μl/well culture medium to a 384-well cell plate and incubate the cells overnight at 37° C., 5% (v/v) CO2.\n4. On the assay day, prepare 2× dye solution following the manual of the FLIPR® Calcium 6 Assay Kit: i. Dilute the dye with assay buffer (20 mM HEPES in 1×HBSS, PH7.4); ii. Add probenecid to the final concentration of 5 mM; iii. Vortex vigorously for 1-2 minutes.\n5. Medium from cell plate by flicking the cell plate on towel papers.\n6. Add 10 μl of assay buffer and 10 μl of 2× dye solution to each well of the cell plate.\n7. Put the cell plate on plate shaker, agitate the plate at 600 rpm for 2 minutes. Incubate the plate at 37° C. for 2 hours followed by additional 15-minute incubation at 25° C.\n8. Prepare 3× compound in assay buffer: a. Dilute reference compounds to required concentration with DMSO. Add the compounds to a 384-well compound plate; b. Perform serial dilutions; c. Add 10 mM test compounds to the compound plate, perform 3-fold serial dilutions. d. […] Add 20 μl/well assay buffer to the compound plate; f. Mix the plate on plate shaker for 2 mins;\ni. The normalized fluorescence reading (RFU) is calculated as shown follow, while Fmax and Fmin stand for maximum and minimum of calcium signal during defined time window: RFU=Fmax−Fmin\nii. Calculate the percentage activation by using following equation: […]\niii. Calculate EC50 by fitting % activation against log of compound concentrations with Hill equation using XLfit."}, "[2]": {"assay": "Liver microsomes stability, human", "settings": "for half-life at 2 μM / microsomal CLint at 2 μM: microsomes; for Remaining Percentage (%) after 60 min Human: with NADPH, 2 μM, 0.5 mg/mL microsomes", "protocol": "(§1) The objective of this study was to estimate in vitro metabolic stability of I-12 in pooled human, male rat and male mouse liver microsomes. The concentrations of parent compounds in reaction systems were evaluated by LC-MS/MS for estimating the stability in pooled human, male rat and male mouse liver microsomes. The in vitro intrinsic clearances of test compounds were determined as well.\n(§2) A master solution in the “Incubation Plate” containing phosphate buffer, ultra-pure H2O, MgCl2 solution and liver microsomes was made according to Table-3. The mixture was pre-warmed at 37° C. water bath for 5 minutes.\n(§3) 40 μL of 10 mM NADPH solution was added to each well. The final concentration of NADPH was 1 mM. The negative control samples were prepared by replacing NADPH with 40 μL of ultra-pure H2O. Samples were prepared in duplicate. Negative controls were prepared in singlet.\n(§4) The reaction was started with the addition of 4 μL of 200 μM exemplary test compounds of the application or control compounds to each master solution to get the final concentration of 2 μM. This study was performed in duplicate.\n(§5) Aliquots of 50 μL were taken from the reaction solution at 0, 15, 30, 45 and 60 minutes. The reaction solutions were stopped by the addition of 4 volumes of cold methanol with IS (100 nM alprazolam, 200 nM imipramine, 200 nM labetalol and 2 μM ketoprofen). Samples were centrifuged at 3,220 g for 40 minutes. Aliquot of 90 μL of the supernatant was mixed with 90 μL of ultra-pure H2O and then was used for LC-MS/MS analysis.\n(§6) LC/MS analysis was performed for all samples from this study using a Shimadzu liquid chromatograph separation system equipped with degasser DGU-20A5R; solvent delivery unit LC-30AD; system controller SIL-30AC; column oven CTO-30A; CTC Analytics HTC PAL System. Mass spectrometric analysis was performed using an Triple Quad™ 5500 instrument.\n(§7) All calculations were carried out using Microsoft Excel. Peak area ratios of test compound to internal standard (listed in the below table) were determined from extracted ion chromatograms.\n(§8) All calculations were carried out using Microsoft Excel. Peak areas were determined from extracted ion chromatograms. The slope value, k, was determined by linear regression of the natural logarithm of the remaining percentage of the parent drug vs. incubation time curve.\n(§9) Conversion of the in vitro t1/2 (min) into the in vitro intrinsic clearance (in vitro CLint, in μL/min/mg proteins) was done using the following equation (mean of duplicate determinations): […]"}, "[3]": {"assay": "In vivo pharmacokinetics of I-28 and its metabolite I-45 in mice (i.v. and p.o.)", "design": "species or system Male C57 BL/6 mice", "protocol": "Male C57 BL/6 mice (25-30 g) from Charles River Labs were acclimatized for a minimum of 5 days prior to dosing. Body weights were recorded on the day of dosing.\nAnimals dosed p.o. were deprived of food overnight and fed ˜2 h following dosing.\nFormulations were administered intravenously (i.v.) via the tail vein or orally (p.o.) by gavage with disposable feeding needles.\nSerial blood samples were collected via tail snip. Terminal blood samples were collected under isoflurane anesthesia by cardiac puncture.\nAll blood samples were transferred into K2EDTA tubes on wet ice and centrifuged within 5 min (3200×g for 5 min at 4° C.) to obtain plasma. Plasma were stored at −80° C. until analysis.\nAB Sciex QTRAP 4000 or 6500 MS/MS system equipped with an LC system with a binary pump, a solvent degasser, a thermostated column compartment and a multiplate autosampler. i. Analysis software: Phoenix® WinNonlin® 8.2 (Pharsight, Certara, Mountainview, Calif.) ii. Analysis methods: non-compartmental analysis, linear up/log down trapezoidal rule iii. PK parameters: C0, t1/2, AUC0-tlast, AUC0-∞, CL, VSS, MRT, tmax(po), Cmax(po), F, as appropriate C0 concentration extrapolated to time zero following an i.v. dose tmax time at which maximum concentration is observed Cmax maximum observed concentration Apparent t1/2 apparent terminal half-life area under the concentration vs time curve from time 0 to the time of the last AUC0-tlast measurable concentration AUC0-inf area under the concentration vs time curve from time 0 to infinity CL systemic clearance MRT0-inf mean residence time from time zero to infinity VSS steady-state volume of distribution F bioavailability=(Dose^iv*AUC^po)/(Dose^po*AUC^iv)*100"}, "[4]": {"assay": "Liver microsomes stability, rat", "settings": "for half-life at 2 μM / microsomal CLint at 2 μM: male, rat, microsomes; for Remaining Percentage (%) after 60 min Rat: with NADPH, 2 μM, 0.5 mg/mL microsomes", "protocol": "as §1, §2, §3, §4, §5, §6, §7, §8, §9"}, "[5]": {"assay": "Liver microsomes stability, mouse", "settings": "for half-life at 2 μM / microsomal CLint at 2 μM: male, mouse, microsomes; for Remaining Percentage (%) after 60 min Mouse: with NADPH, 2 μM, 0.5 mg/mL microsomes", "protocol": "as §1, §2, §3, §4, §5, §6, §7, §8, §9"}, "[6]": {"settings": "male, C57 BL/6, iv, i.v., I-28 2.2 mg/kg, I-28 in mouse plasma, n = 2"}, "[7]": {"settings": "i.v., Metabolite (I-45) alone 1 mg/kg, mouse plasma"}, "[8]": {"settings": "p.o., Metabolite (I-45) alone 10 mg/kg, mouse plasma"}}}
{"smiles": "[2H]C([2H])([2H])N(C([2H])([2H])[2H])C([2H])([2H])C([2H])([2H])c1c[nH]c2cccc(OC(=O)CCCCCCC/C=C\\C/C=C\\CCCCC)c12", "note": "[Compound I-28, 3-(2-(bis(methyl-d3)amino)ethyl-1,1,2,2-d4)-1H-indol-4-yl (9Z,12Z)-octadeca-9,12-dienoate]", "values": [{"measurement": "EC50", "setting": "[1]", "result": 965, "unit": "nM"}, {"measurement": "half-life at 2 μM", "setting": "[2]; human", "result": 2.23, "unit": "h"}, {"measurement": "microsomal CLint at 2 μM", "setting": "[2]; human", "result": 10.4, "unit": "µL/min/mg"}, {"measurement": "metabolic stability in liver microsomes (in words)", "setting": "[2]; human, rat and mouse liver microsomes, 60 minute", "result": "rapidly metabolized"}, {"measurement": "Remaining Percentage (%) after 60 min Human", "setting": "[2]", "result": 73.27, "unit": "%"}, {"measurement": "AUC0-inf/Dose (h*kg*ng/mL/mg)", "setting": "[3]; i.v., I-28 2.2 mg/kg, I-28 in mouse plasma, n = 2", "result": "62.1 (n = 2) h*kg*ng/mL/mg"}, {"measurement": "C0", "setting": "[3]; male, C57 BL/6, iv, i.v., I-28 2.2 mg/kg (equimolar to 1 mg/kg metabolite), I-28 in mouse plasma", "result": "448 ± 411", "unit": "ng/mL"}, {"measurement": "AUC(0-inf)", "setting": "[3]; [6]", "result": 137, "unit": "ng·h/mL"}, {"measurement": "clearance", "setting": "[3]; [6]", "result": 385, "unit": "mL/min/kg"}, {"measurement": "half-life", "setting": "[3]; male, C57 BL/6, iv, i.v., I-28 2.2 mg/kg, I-28 in mouse plasma, n = 2, read-out: Apparent t1/2 (converted)", "result": 4.92, "unit": "h"}, {"measurement": "MRT inf", "setting": "[3]; male, C57 BL/6, iv, i.v., I-28 2.2 mg/kg, I-28 in mouse plasma, n = 2, read-out: MRT0-inf", "result": 0.977, "unit": "h"}, {"measurement": "Vd", "setting": "[3]; male, C57 BL/6, iv, i.v., I-28 2.2 mg/kg, I-28 in mouse plasma, n = 2, read-out: VSS", "result": 17, "unit": "L/kg"}, {"measurement": "AUC(0-t)", "setting": "[3]; male, C57 BL/6, iv, i.v., I-28 2.2 mg/kg, I-28 in mouse plasma, read-out: AUC0-tlast", "result": "110 ± 85.9", "unit": "ng·h/mL"}, {"measurement": "Tmax", "setting": "[3]; male, C57 BL/6, po, p.o., I-28 22 mg/kg (equimolar to 10 mg/kg metabolite), I-28 in mouse plasma", "result": "2.17 ± 3.32", "unit": "h"}, {"measurement": "Cmax", "setting": "[3]; male, C57 BL/6, po, p.o., I-28 22 mg/kg, I-28 in mouse plasma", "result": "1.06 ± 0.447", "unit": "ng/mL"}, {"measurement": "Cmax/Dose", "setting": "[3]; p.o., I-28 22 mg/kg, I-28 in mouse plasma", "result": "0.0482 ± 0.0203", "unit": "kg·ng/mL/mg"}, {"measurement": "half-life at 2 μM", "setting": "[4]", "result": 0.659, "unit": "h"}, {"measurement": "microsomal CLint at 2 μM", "setting": "[4]", "result": 35.1, "unit": "µL/min/mg"}, {"measurement": "Remaining Percentage (%) after 60 min Rat", "setting": "[4]", "result": 34.92, "unit": "%"}, {"measurement": "half-life at 2 μM", "setting": "[5]", "result": 0.276, "unit": "h"}, {"measurement": "microsomal CLint at 2 μM", "setting": "[5]", "result": 83.7, "unit": "µL/min/mg"}, {"measurement": "Remaining Percentage (%) after 60 min Mouse", "setting": "[5]", "result": 8.12, "unit": "%"}]}
{"smiles": "[2H]C([2H])([2H])N(C([2H])([2H])[2H])C([2H])([2H])C([2H])([2H])c1c[nH]c2cccc(O)c12", "note": "[Compound I-45, 3-(2-(bis(methyl-d3)amino)ethyl-1,1,2,2-d4)-1H-indol-4-ol]", "values": [{"measurement": "agonist effect on h5-HT2A receptor (in words)", "setting": "[1]; agonist mode, FLIPR", "result": "active agonist"}, {"measurement": "half-life at 2 μM", "setting": "[2]; human", "result": 5.01, "unit": "h"}, {"measurement": "microsomal CLint at 2 μM", "setting": "[2]; human", "result": 4.61, "unit": "µL/min/mg"}, {"measurement": "Remaining Percentage (%) after 60 min Human", "setting": "[2]", "result": 87.08, "unit": "%"}, {"measurement": "AUC0-inf/Dose", "setting": "[3]; [7]", "result": "181 ± 30.8", "unit": "kg·ng·h/mL/mg"}, {"measurement": "Apparent t1/2", "setting": "[3]; [7]", "result": "5.32 ± 2.99", "unit": "h"}, {"measurement": "C0", "setting": "[3]; male, C57 BL/6, mouse, plasma, iv, 1 mg/kg", "result": "566 ± 85", "unit": "ng/mL"}, {"measurement": "AUC0-inf/Dose", "setting": "[3]; [8]", "result": "79.5 ± 12.1", "unit": "kg·ng·h/mL/mg"}, {"measurement": "Apparent t1/2", "setting": "[3]; [8]", "result": "4.52 ± 0.481", "unit": "h"}, {"measurement": "Cmax/Dose", "setting": "[3]; [8]", "result": "70.4 ± 12.8", "unit": "kg·ng/mL/mg"}, {"measurement": "half-life at 2 μM", "setting": "[4]", "result": 1.76, "unit": "h"}, {"measurement": "microsomal CLint at 2 μM", "setting": "[4]", "result": 13.1, "unit": "µL/min/mg"}, {"measurement": "Remaining Percentage (%) after 60 min Rat", "setting": "[4]", "result": 67.47, "unit": "%"}, {"measurement": "half-life at 2 μM", "setting": "[5]", "result": 4.09, "unit": "h"}, {"measurement": "microsomal CLint at 2 μM", "setting": "[5]", "result": 5.65, "unit": "µL/min/mg"}, {"measurement": "Remaining Percentage (%) after 60 min Mouse", "setting": "[5]", "result": 84.40, "unit": "%"}]}
